biological target: Fibroblast growth factor 1 (Homo sapiens, UniProt P05230); assay: Binding affinity at FGF1
Sequence (P05230 whole entry): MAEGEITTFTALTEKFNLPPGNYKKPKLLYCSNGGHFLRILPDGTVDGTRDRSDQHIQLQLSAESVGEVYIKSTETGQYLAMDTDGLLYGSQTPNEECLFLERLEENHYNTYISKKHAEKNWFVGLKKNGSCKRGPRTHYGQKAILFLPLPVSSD

| Kd | Compound |
| --- | --- |
| 1400 µM | CO[C@@H]1OC[C@@H](O[C@H]2O[C@H](CO)[C@H](O)[C@H](O)[C@H]2OS(=O)(=O)O)[C@H](OS(=O)(=O)O)[C@H]1OS(=O)(=O)O |
| 47.9 µM | CO[C@@H]1O[C@H](COS(=O)(=O)O)[C@@H](O[C@H]2O[C@H](COS(=O)(=O)O)[C@H](OC)[C@H](OC)[C@H]2OS(=O)(=O)O)[C@H](OS(=O)(=O)O)[C@H]1OS(=O)(=O)O |
| 77.5 µM | CO[C@@H]1O[C@H](COS(=O)(=O)O)[C@@H](O[C@H]2O[C@H](CO)[C@H](O)[C@H](O)[C@H]2OS(=O)(=O)O)[C@H](OS(=O)(=O)O)[C@H]1OS(=O)(=O)O |
| 21.8 µM | CO[C@@H]1O[C@H](COS(=O)(=O)O)[C@@H](O[C@H]2O[C@H](COS(=O)(=O)O)[C@H](O)[C@H](O)[C@H]2OS(=O)(=O)O)[C@H](OS(=O)(=O)O)[C@H]1OS(=O)(=O)O |
| 233 µM | COC[C@H]1O[C@H](O[C@H]2[C@H](OS(=O)(=O)O)[C@@H](OS(=O)(=O)O)[C@H](OC)O[C@@H]2COS(=O)(=O)O)[C@H](OS(=O)(=O)O)[C@@H](OC)[C@H]1OC |
